# Test results as given in publication PMC10713630, “Elucidation of the structural basis for ligand binding and translocation in conserved insect odorant receptor co-receptors” (Nature Communications, 2023).
# Several values for one entry are separate records, joined by “and”; a condition that tells them apart may be missing. Equal values may be shown once. Entries after “also recorded” stand apart in the source; their conditions may differ.
# What was measured:
# Assay type in all cases: cell-based
# DmelOrco V206W = DmelOrco V206W (Drosophila melanogaster, UniProt Q9VNB5, V206W); assay: TEVC recording of VUAA1-induced current, DmelOrco V206W in Xenopus oocytes; parameters: VUAA1-induced current, V206W: unit not given here; settings: for VUAA1-induced current, V206W: individual oocytes
# Chain of DmelOrco V206W (Q9VNB5 whole entry V206W, the tested form may be a part): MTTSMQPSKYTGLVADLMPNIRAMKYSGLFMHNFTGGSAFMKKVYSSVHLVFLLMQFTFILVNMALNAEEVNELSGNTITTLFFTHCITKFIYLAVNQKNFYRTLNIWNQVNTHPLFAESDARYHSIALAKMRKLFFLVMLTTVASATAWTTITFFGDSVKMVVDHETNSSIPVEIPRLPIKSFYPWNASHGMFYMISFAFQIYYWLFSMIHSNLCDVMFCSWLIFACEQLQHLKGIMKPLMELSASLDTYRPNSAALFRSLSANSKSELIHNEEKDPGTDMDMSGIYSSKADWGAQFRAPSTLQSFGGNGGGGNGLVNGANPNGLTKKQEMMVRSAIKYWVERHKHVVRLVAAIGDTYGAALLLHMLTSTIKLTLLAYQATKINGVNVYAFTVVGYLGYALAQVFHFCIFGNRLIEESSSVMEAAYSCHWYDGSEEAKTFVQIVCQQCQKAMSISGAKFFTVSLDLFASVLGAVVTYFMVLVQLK
# Excerpt: (§1) All Orco gene sequences were optimized[63] for protein expression in Xenopus laevis oocytes with the GenSmartTM Codon optimization Tool and subcloned into a pGEMHE-derived vector. The wildtype gene of Drosophila melanogaster Orco (DmelOrco) was synthesized by Genscript and subcloned with XmaI/XhoI cloning sites. Site-directed mutagenesis of DmelOrco was done by PCR with the Q5® site directed mutagenesis kit (NEB) using primers optimized with the NEBase Changer online tool and following the supplier’s protocol. After transformation of commercial competent bacteria (XL10 Gold) by standard heat-shock protocol and overnight culture in ampicillin-containing LB plates, positive clones were identified by electrophoretic restriction profile and external sequencing (Genewiz). DNAs of positive clones were amplified with Qiagen MidiPrep Kit and the ORF was fully sequenced. For in vitro transcription, DNAs were linearized with restriction enzyme NotI that cuts a unique site in the 3′ region of the polyA tail. The linearized DNAs were purified by the standard phenol:chloroform extraction method and transcribed into mRNA using the T7 ultra mMessage mMachine kit (Thermo Fisher Scientific). mRNAs were purified with the NucleoSpin RNA plus XS kit (Machery-Nagel). DNA and RNA were analyzed by agarose-gel electrophoresis and quantified by spectrophotometry.
# (§2) Xenopus laevis oocytes were prepared, as previously described. Briefly, oocytes were defolliculated after surgical retrieval by type 1 A collagenase over 2-3 h under smooth horizontal agitation. They were manually selected and incubated at 19 °C in modified-Barth’s solution (1 mM KCl, 0.82 mM MgSO4, 88 mM NaCl, 2.4 mM NaHCO3, 0.41 mM CaCl2, Ca(NO3)2 0.3 mM, 16 mM HEPES, pH 7.4) supplemented with 100 U mL^−1 of penicillin and streptomycin and 0.1 mg mL^−1 of gentamycin. Each oocyte was micro-injected with the Nanoject instrument (Drummond) with 50 nL of 20 ng of mRNA coding for the Orco of interest. Injected oocytes were incubated individually in 96-well plates for 4 days at 19 °C in the same buffer. Different batches of oocytes have been tested per construct. The results of the mutants of interest have been confirmed by a second set of experiments comparing the amplitudes with WT in the same day and from the same batch of oocytes (Supplementary Fig. 11).
# (§3) Whole cell currents were recorded with the two-electrode voltage-clamp (TEVC) technique with the HiClamp robot (MultiChannel System). Microelectrodes were filled with 3 M KCl. The high K^+ buffer used for recordings was composed of 91 mM KCl, 1 mM MgCl2, 1.8 mM CaCl2, 5 mM HEPES, pH 7.4. Membrane voltage was clamped to −50 mV and VUAA1 was applied for 60 s. Data were extracted with M. Vivaudou’s programs[65] and statistically analyzed with Prism 8 (Graphpad).
# DmelOrco I181A = DmelOrco I181A (Drosophila melanogaster, UniProt Q9VNB5, I181A); assay: TEVC recording of VUAA1-induced current, DmelOrco I181A in Xenopus oocytes; parameters: VUAA1-induced current, i181A: unit not given here
# Chain of DmelOrco I181A (Q9VNB5 whole entry I181A, the tested form may be a part): as the sequence (Q9VNB5 whole entry V206W, the tested form may be a part) above, with I181A, W206V counted along it
# Excerpt: as §1, with “The linearized DNAs were purified by the standard phenol:chloroform extraction method and transcribed into mRNA using the T7 ultra mMessage mMachine kit (Thermo Fisher Scientific). mRNAs were purified with the NucleoSpin RNA plus XS kit (Machery-Nagel).” left out, “spectrophotometry. […]” for “spectrophotometry.”
# (§4) Whole cell currents were recorded with the two-electrode voltage-clamp (TEVC) technique with the HiClamp robot (MultiChannel System). […] Data were extracted with M. Vivaudou’s programs[65] and statistically analyzed with Prism 8 (Graphpad).
# DmelOrco V206A = DmelOrco V206A (Drosophila melanogaster, UniProt Q9VNB5, V206A); assay: TEVC recording of VUAA1-induced current, DmelOrco V206A in Xenopus oocytes; parameters: VUAA1-induced current, V206A: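 current amplitude in µA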
# Chain of DmelOrco V206A (Q9VNB5 whole entry V206A, the tested form may be a part): as the sequence (Q9VNB5 whole entry V206W, the tested form may be a part) above, with W206A counted along it
# Excerpt: as §1, with “The linearized DNAs were purified by the standard phenol:chloroform extraction method and transcribed into mRNA using the T7 ultra mMessage mMachine kit (Thermo Fisher Scientific). mRNAs were purified with the NucleoSpin RNA plus XS kit (Machery-Nagel).” left out, “spectrophotometry. […]” for “spectrophotometry.”
# as §4
# DmelOrco WT = biological target: T1, DmelOrco WT (Drosophila melanogaster, UniProt Q9VNB5); assay: TEVC recording of VUAA1-induced current, DmelOrco WT in Xenopus oocytes; parameters: VUAA1-induced current, WT: unit not given here; settings: for VUAA1-induced current, WT: individual oocytes
# T1 sequence (Q9VNB5 1-486): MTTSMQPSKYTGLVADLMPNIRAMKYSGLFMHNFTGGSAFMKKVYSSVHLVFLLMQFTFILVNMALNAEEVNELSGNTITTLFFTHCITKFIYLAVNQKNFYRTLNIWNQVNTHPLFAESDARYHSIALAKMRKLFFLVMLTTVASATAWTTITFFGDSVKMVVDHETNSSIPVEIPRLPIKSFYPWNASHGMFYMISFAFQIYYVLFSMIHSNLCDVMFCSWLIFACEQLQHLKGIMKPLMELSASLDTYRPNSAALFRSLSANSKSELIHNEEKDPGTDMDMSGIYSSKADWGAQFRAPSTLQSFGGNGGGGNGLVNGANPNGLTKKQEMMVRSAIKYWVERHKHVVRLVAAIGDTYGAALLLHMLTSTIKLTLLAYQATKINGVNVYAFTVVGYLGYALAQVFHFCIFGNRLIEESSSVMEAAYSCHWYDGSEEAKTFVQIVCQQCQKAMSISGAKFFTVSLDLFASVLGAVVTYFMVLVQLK
# Excerpt: as §1, §2, §3
# DmelOrco L141A = DmelOrco L141A (Drosophila melanogaster, UniProt Q9VNB5, L141A); assay: TEVC recording of VUAA1-induced current, DmelOrco L141A in Xenopus oocytes; settings: 500 µM VUAA1, TEVC
# Chain of DmelOrco L141A (Q9VNB5 whole entry L141A, the tested form may be a part): as the sequence (Q9VNB5 whole entry V206W, the tested form may be a part) above, with L141A, W206V counted along it
# Excerpt: as §1, with “For in vitro transcription, DNAs were linearized with restriction enzyme NotI that cuts a unique site in the 3′ region of the polyA tail. The linearized DNAs were purified by the standard phenol:chloroform extraction method and transcribed into mRNA using the T7 ultra mMessage mMachine kit (Thermo Fisher Scientific). mRNAs were purified with the NucleoSpin RNA plus XS kit (Machery-Nagel).” left out, “spectrophotometry. […]” for “spectrophotometry.”
# Whole cell currents were recorded with the two-electrode voltage-clamp (TEVC) technique with the HiClamp robot (MultiChannel System). […] Data were extracted with M. Vivaudou’s programs[65] and statistically analyzed with Prism 8 (Graphpad). […]
# 100 by 500 µM of the ligand VUAA1 and measured by TEVC recordings on DmelOrco WT and mutants […]
# DmelOrco Y400W = DmelOrco Y400W (Drosophila melanogaster, UniProt Q9VNB5, Y400W); assay: TEVC recording of VUAA1-induced current, DmelOrco Y400W in Xenopus oocytes; settings: 500 µM VUAA1, TEVC
# Chain of DmelOrco Y400W (Q9VNB5 whole entry Y400W, the tested form may be a part): as the sequence (Q9VNB5 whole entry V206W, the tested form may be a part) above, with W206V, Y400W counted along it
# Excerpt: as §1, with “The linearized DNAs were purified by the standard phenol:chloroform extraction method and transcribed into mRNA using the T7 ultra mMessage mMachine kit (Thermo Fisher Scientific). mRNAs were purified with the NucleoSpin RNA plus XS kit (Machery-Nagel).” left out, “spectrophotometry. […]” for “spectrophotometry.”
# as §4
# DmelOrco S146A = DmelOrco S146A (Drosophila melanogaster, UniProt Q9VNB5, S146A); assay: TEVC recording of VUAA1-induced current, DmelOrco S146A in Xenopus oocytes
# Chain of DmelOrco S146A (Q9VNB5 whole entry S146A, the tested form may be a part): as the sequence (Q9VNB5 whole entry V206W, the tested form may be a part) above, with S146A, W206V counted along it
# Excerpt: as §1, with “The linearized DNAs were purified by the standard phenol:chloroform extraction method and transcribed into mRNA using the T7 ultra mMessage mMachine kit (Thermo Fisher Scientific). mRNAs were purified with the NucleoSpin RNA plus XS kit (Machery-Nagel).” left out, “spectrophotometry. […]” for “spectrophotometry.”
# as §4
# [1] = Fig.4i dose-response, VUAA1 10 µM (Log(M) -5)
# [2] = Fig.4i dose-response, VUAA1 25 µM (Log(M) -4.6)
# [3] = Fig.4i dose-response, VUAA1 50 µM (Log(M) -4.3)
# [4] = Fig.4i dose-response, VUAA1 100 µM (Log(M) -4)
# [5] = Fig.4i dose-response, VUAA1 500 µM (Log(M) -3.3)
smiles,measurement,setting,value
"CCc1ccc(NC(=O)CSc2nnc(-c3cccnc3)n2CC)cc1 [VUAA1, N-(4-ethylphenyl)−2-((4-ethyl-5-(3-pyridinyl)−4H-1,2,4-triazol-3-yl)thio)acetamide]",Response to VUAA1 compared with WT,"DmelOrco V206W; 500 µM VUAA1, TEVC, V206W",significantly reduced or abolished the activation; also recorded: significant decrease in the response
same,"VUAA1-induced current, V206W",DmelOrco V206W; Fig.4b,0.24 and 0.29 and 1.03 and 0.65 and 0.59 and 0.7 and 0.64 and 0.44 and 0.27
same,"VUAA1-induced current, V206W",DmelOrco V206W; [1],0.05 and 0.36 and 0.03 and 0.04 (2×) and 0.02 (2×) and 0.01
same,"VUAA1-induced current, V206W",DmelOrco V206W; [2],0.02 (2×) and 0.37 and 0.05 and 0.04 and 0.03 (3×)
same,"VUAA1-induced current, V206W",DmelOrco V206W; [3],0.01 and 0.48 and 0.1 and 0.04 (2×) and 0.05 (2×) and 0.03
same,"VUAA1-induced current, V206W",DmelOrco V206W; [4],0.01 and 0.59 and 0.18 and 0.05 and 0.19 and 0 and 0.22 and 0.1
same,"VUAA1-induced current, V206W",DmelOrco V206W; [5],0.07 (2×) and 0.56 and 0.2 and 0.4 and 0.09 and 0.5 and 0.18
same,"VUAA1-induced current, V206W","DmelOrco V206W; Fig.4i dose-response, VUAA1 1000 µM (Log(M) -3)",0.12 and 0.59 and 0.2 and 0.07 and 0.5 and 0.11 and 0.61 and 0.24
same,Imax,"DmelOrco V206W; concentration-effect curve of VUAA1, TEVC, V206W",0.33 µA
same,Response to VUAA1 compared with WT,"DmelOrco I181A; 500 µM VUAA1, TEVC, I181A",did not significantly affect the amplitude of activation
same,"VUAA1-induced current, i181A","DmelOrco I181A; Fig.4b, individual oocytes",2.04 and 7.33 and 5.46 and 2.9 and 2.3 and 1.5 and 5.38 and 11.56 and 4.17 and 3.69
same,Response to VUAA1 compared with WT,"DmelOrco V206A; 500 µM VUAA1, TEVC, V206A",did not significantly affect the amplitude of activation
same,"VUAA1-induced current, V206A","DmelOrco V206A; Fig.4b, individual oocytes",5.13 and 5.19 and 4.77 and 3.78 and 5.39 and 5.08 and 2.86 and 2.36
same,Current induced by VUAA1 (median),"DmelOrco WT; 500 µM VUAA1, TEVC, WT",4.71 µA
same,Current amplitude in the presence of VUAA1 compared with Orcos of other species,"DmelOrco WT; 500 µM VUAA1, TEVC, versus AbakOrco, AalbOrco, CquiOrco",highest current amplitude
same,"VUAA1-induced current, WT",DmelOrco WT; Fig.4b,1.7 and 1.54 and 2.24 and 5.84 and 5.68 and 11.97 and 10.02 and 8.3 and 7.33 and 2.12 and 1.87 and 2.7 and 3.73 and 16.35 and 2.15 and 5.7
same,"VUAA1-induced current, WT",DmelOrco WT; [1],0.03 and 0.04 (2×) and 0.02 and 0.09 and 0.05 and 0.06
same,"VUAA1-induced current, WT",DmelOrco WT; [2],0.27 and 0.36 and 0.04 (4×) and 0.08 (2×) and 0.03 (3×) and 0.02 and 0.05 (3×) and 0.15 and 0 and 0.09 and 0.12 and 0.07
same,"VUAA1-induced current, WT",DmelOrco WT; [3],0.58 and 0.72 and 0.4 (2×) and 0.37 and 0.54 and 0.11 and 0.17 and 0.26 (3×) and 0.21 and 0.34 and 0.77 and 1.04 and 1.01 (2×) and 0.78 and 1.15 and 1.23
same,"VUAA1-induced current, WT",DmelOrco WT; [4],1.33 and 1.71 and 2.65 and 2.17 (2×) and 2.77 and 1.82 and 2.07 and 2.22 and 1.61 and 2.38 and 1.2 and 1.79 and 2.19 and 2.6 and 2.64 (2×) and 1.94 and 2.47 and 2.54
same,"VUAA1-induced current, WT",DmelOrco WT; [5],3.64 (2×) and 4.55 and 3.85 and 4.63 and 4.01 and 4.3 and 4.47 and 4.77 and 5.33 and 1.53 and 3.97 and 4.65 and 2.65 and 2.64 and 2.78 (2×)
same,EC50,"DmelOrco WT; VUAA1 dose-response curve, TEVC, WT",94.5 µM
same,Imax,"DmelOrco WT; concentration-effect curve of VUAA1, TEVC, WT",3.97 µA
same,Response to VUAA1 compared with WT,DmelOrco L141A,did not induce significant change
same,Response to VUAA1 compared with WT,DmelOrco Y400W,did not significantly change the response
same,Current induced by VUAA1 (median),"DmelOrco S146A; 500 µM VUAA1, TEVC, S146A",7.55 µA
same,Effect on VUAA1-induced channel response,DmelOrco S146A; DmelOrco S146A,I
